Article PMC12783763 (Nature Communications, 2025)

Target: NPM1 (nucleophosmin 1) (Homo sapiens, UniProt P06748)
Experiment: surface plasmon resonance
Type: binding

NPM1 (nucleophosmin 1), sequence (P06748 whole entry): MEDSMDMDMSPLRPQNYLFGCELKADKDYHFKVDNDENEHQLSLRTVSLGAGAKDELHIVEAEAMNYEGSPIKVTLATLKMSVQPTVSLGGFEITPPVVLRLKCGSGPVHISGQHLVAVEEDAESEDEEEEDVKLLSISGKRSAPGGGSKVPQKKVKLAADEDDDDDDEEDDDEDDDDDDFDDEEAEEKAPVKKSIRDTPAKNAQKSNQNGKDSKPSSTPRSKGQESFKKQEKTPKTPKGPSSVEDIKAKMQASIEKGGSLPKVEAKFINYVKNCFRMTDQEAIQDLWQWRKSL

Kd: 20.9 µM
SMILES: C[C@H](CCC(=O)NCCS(=O)(=O)O)[C@H]1CC[C@H]2[C@@H]3[C@H](O)C[C@@H]4C[C@H](O)CC[C@]4(C)[C@H]3CC[C@]12C [taurochenodeoxycholic acid]
